Broadly, the remaining activity is what remains of the control signal, in per cent. Read a low remaining activity as little activity left.

This assay deals with T1, PMS2 protein (Homo sapiens, UniProt P54278).
T1 construct: host or cells: SW620 human colorectal carcinoma cells
T1 sequence (P54278 1-862): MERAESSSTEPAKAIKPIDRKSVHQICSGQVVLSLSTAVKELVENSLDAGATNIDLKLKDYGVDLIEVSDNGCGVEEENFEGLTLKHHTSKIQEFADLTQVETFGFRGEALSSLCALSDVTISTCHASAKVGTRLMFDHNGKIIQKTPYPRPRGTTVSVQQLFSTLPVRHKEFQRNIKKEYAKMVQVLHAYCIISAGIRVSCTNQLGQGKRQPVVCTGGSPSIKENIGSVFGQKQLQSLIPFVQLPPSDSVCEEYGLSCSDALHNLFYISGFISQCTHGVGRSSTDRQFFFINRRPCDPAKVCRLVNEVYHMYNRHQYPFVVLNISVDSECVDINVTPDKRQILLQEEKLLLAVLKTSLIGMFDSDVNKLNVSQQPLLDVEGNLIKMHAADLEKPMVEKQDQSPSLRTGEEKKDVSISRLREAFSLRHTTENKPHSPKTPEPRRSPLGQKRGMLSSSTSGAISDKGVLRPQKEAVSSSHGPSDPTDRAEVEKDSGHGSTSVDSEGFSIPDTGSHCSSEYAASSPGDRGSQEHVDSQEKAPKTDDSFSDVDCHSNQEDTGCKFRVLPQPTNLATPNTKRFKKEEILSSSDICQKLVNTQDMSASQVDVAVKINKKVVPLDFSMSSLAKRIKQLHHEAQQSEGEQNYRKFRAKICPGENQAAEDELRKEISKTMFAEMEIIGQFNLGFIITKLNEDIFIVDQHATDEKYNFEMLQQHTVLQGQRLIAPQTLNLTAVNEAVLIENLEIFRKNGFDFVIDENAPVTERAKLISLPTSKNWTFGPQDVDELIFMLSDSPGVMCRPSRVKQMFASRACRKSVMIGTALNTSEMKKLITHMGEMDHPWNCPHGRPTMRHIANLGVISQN
Put plainly: PROTAC screening in SW620 human colorectal carcinoma cells, PMS2 protein level by JESS Western blot. As to conditions: SW-620, 24 h, 1 uM compound, normalised to actin and DMSO control, Table A1. Format: cell-based. The method, then:
PROTAC Screening Protocol Using SW620 Human Colorectal Carcinoma Cells
SVW620 cells (ATCC/[…]) were cultured in T75 Falcon flasks in culture media (F12/DMEM 1:1 media, 10% FCS, +L-G supplement). Cells were split twice a week, for a maximum of 6 weeks. Media was aspirated, and cells washed with 10 mL of sterile PBS. PBS was aspirated, and cells incubated with 1.5 mL TrypLE for up to 5 minutes at 37° C., 5% CO2. Once cells had detached, TrypLE was neutralised with 10 mL culture media and cells mixed 1:1 with Trypan blue and quantified using a Luna cell counter. Cells were then seeded into fresh T75 flasks with 1×10^6 cells and 10 mL culture media.
SW620 cells, cultured and counted as above, were used to seed 12 well plates at a density of 1.5×10^5 cells/well and incubated overnight at 37° C., 5% CO2. Test compounds were solubilized in DMSO to a stock concentration of 10 mM and serially diluted in DMSO and media to their test concentration; the final concentration of DMSO was 0.1% (v/v). Each concentration was tested in triplicate. SW620 cells were incubated with test compound for 24 hours at 37° C., 5% CO2. Media was aspirated from each well, and each well washed with 1 mL ice cold PBS. PBS was then aspirated, and 50 μL of cold lysis buffer (RIPA buffer supplemented with 1× protease inhibitors, Benzonase, MgCl) was added to each well; plates were then incubated on ice for 5 minutes. Cells were scraped using a pipette tip before being transferred to a fresh Eppendorf. Samples were spun at maximum speed in a benchtop centrifuge for 5 minutes at 4° C. and supernatant was then transferred to fresh tubes. Samples were stored at −80° C. until analysis.
Bicinchonininic acid (BCA) protein assay standards (2-0.125 mg/mL BSA) were prepared in advance. 6 μL of each standard was pipetted in duplicate into rows A and B of a 384-well assay plate. Test samples were diluted in lysis buffer (1:3-1:10) in a 384-well plate in duplicate. BCA Reagents were combined 50:1, Part A:Part B and 50 μL added to each well. Plates were incubated for 30 min at 37° C. in a plate incubator and read using a BCA protein 384 protocol on an EnSpire plate reader. Protein concentrations were calculated from a standard curve.
JESS Western Blot Protocol
Protein lysates were prepared using Protein Simple EZ standard pack reagents: 40 μL distilled H2O was added to a DTT tube (clear) and treated with 20 μL 10× sample buffer and 20 μL DTT to 5×MM tube (pink). 20 μL dH2O was added to biotinylated ladder tube (green).
Test samples were prepared by dilution to the required concentration (0.1 mg/mL) in 0.1× sample buffer. 1.25 μL 5× fluorescent master mix from the EZ standard pack was added to 5 μL sample for each lane to be loaded (e.g. 2.5 μL+10 μL if loading same sample into 2 wells). Samples were vortexed, briefly spun down and heated at 95° C. for 5 min in a PCR machine then vortexed again and briefly spun down before loading onto JESS cassettes (catalogue No: SM-W004) according to manufacturer's instructions (https://www.proteinsimple.com/technical_library.html?product=simplewestern&def_list=list). Protein expression was determined by the peak area of the target protein signal. Peak area of the target protein was normalised to peak area of the loading control (actin) and to DMSO control.
(In general: In western blotting, separated proteins are transferred to a membrane and probed.)
On to `Cc1c(O)cc(O)c(C(=O)N2Cc3ccc(CN4CCN(CCOCCOCCOc5cccc6c5C(=O)N(C5CCC(=O)NC5=O)C6=O)CC4)cc3C2)c1OCc1ccccc1` (centres unmarked) [Example 10, 4-(2-(2-(2-(4-((2-(2-(Benzyloxy)-4,6-dihydroxy-3-methylbenzoyl)isoindolin-5-yl)methyl)piperazin-1-yl)ethoxy)ethoxy)ethoxy)-2-(2,6-dioxopiperidin-3-yl)isoindoline-1,3-dione], for which the remaining activity at 1 µM lay in the range of 25 to 50%.
In turn, `Cc1ncsc1-c1ccc(CNC(=O)[C@@H]2C[C@@H](O)CN2C(=O)[C@@H](NC(=O)CCCCCCC(=O)N2CCN(Cc3ccc4c(c3)CN(C(=O)c3c(O)cc(O)c(C)c3OCc3ccccc3)C4)CC2)C(C)(C)C)cc1` [Example 25, (2S,4R)-1-[(2S)-2-[[8-[4-[[2-(2-Benzyloxy-4,6-dihydroxy-3-methyl-benzoyl)isoindolin-5-yl]methyl]piperazin-1-yl]-8-oxo-octanoyl]amino]-3,3-dimethyl-butanoyl]-4-hydroxy-N-[[4-(4-methylthiazol-5-yl)phenyl]methyl]pyrrolidine-2-carboxamide] came in with a remaining activity at 1 µM of less than 10%.
The compound `Cc1c(O)cc(O)c(C(=O)N2Cc3ccc(CN4CCN(CCOCCOCCOCCNc5cccc6c5C(=O)N(C5CCC(=O)NC5=O)C6=O)CC4)cc3C2)c1OCc1ccccc1` (centres unmarked) [Example 1, 4-((2-(2-(2-(2-(4-((2-(2-(Benzyloxy)-4,6-dihydroxy-3-methylbenzoyl)isoindolin-5-yl)methyl)piperazin-1-yl)ethoxy)ethoxy)ethoxy)ethyl)amino)-2-(2,6-dioxopiperidin-3-yl)isoindoline-1,3-dione] had a remaining activity at 1 µM of 10 to 25%.
The compound `Cc1ncsc1-c1ccc(CNC(=O)[C@@H]2C[C@@H](O)CN2C(=O)[C@@H](NC(=O)CCCCCC(=O)N2CCN(Cc3ccc4c(c3)CN(C(=O)c3c(O)cc(O)c(C)c3OCC3CCCCC3)C4)CC2)C(C)(C)C)cc1` [Example 26, (2S,4R)-1-[(2S)-2-[[7-[4-[[2-[2-(Cyclohexylmethoxy)-4,6-dihydroxy-3-methyl-benzoyl]isoindolin-5-yl]methyl]piperazin-1-yl]-7-oxo-heptanoyl]amino]-3,3-dimethyl-butanoyl]-4-hydroxy-N-[[4-(4-methylthiazol-5-yl)phenyl]methyl]pyrrolidine-2-carboxamide] came in with a remaining activity at 1 µM of less than 10%.
Turning to `Cc1ncsc1-c1ccc(CNC(=O)[C@@H]2C[C@@H](O)CN2C(=O)[C@@H](NC(=O)CCCCCCC(=O)N2CCN(Cc3ccc4c(c3)CN(C(=O)c3c(O)cc(O)c(C)c3OCC3CCCCC3)C4)CC2)C(C)(C)C)cc1` [Example 27, (2S,4R)-1-[(2S)-2-[[8-[4-[[2-[2-(Cyclohexylmethoxy)-4,6-dihydroxy-3-methyl-benzoyl]isoindolin-5-yl]methyl]piperazin-1-yl]-8-oxo-octanoyl]amino]-3,3-dimethyl-butanoyl]-4-hydroxy-N-[[4-(4-methylthiazol-5-yl)phenyl]methyl]pyrrolidine-2-carboxamide], the remaining activity at 1 µM was less than 10%.
In the case of `Cc1c(O)cc(O)c(C(=O)N2Cc3ccc(CN4CCN(CCOCCOCCOCCOc5cccc6c5CN(C5CCC(=O)NC5=O)C6=O)CC4)cc3C2)c1OCc1ccccc1` (centres unmarked) [Example 14, 3-(4-(2-(2-(2-(2-(4-((2-(2-(Benzyloxy)-4,6-dihydroxy-3-methylbenzoyl)isoindolin-5-yl)methyl)piperazin-1-yl)ethoxy)ethoxy)ethoxy)ethoxy)-1-oxoisoindolin-2-yl)piperidine-2,6-dione], the remaining activity at 1 µM lay in the range of 10 to 25%.
The same measure for `Cc1c(O)cc(O)c(C(=O)N2Cc3ccc(CN4CCN(CCOCCOCCOCCNc5cccc6c5C(=O)N(C5CCC(=O)NC5=O)C6=O)CC4)cc3C2)c1OCC1CCCCC1` (centres unmarked) [Example 5, 4-[2-[2-[2-[2-[4-[[2-[2-(Cyclohexylmethoxy)-4,6-dihydroxy-3-methyl-benzoyl]isoindolin-5-yl]methyl]piperazin-1-yl]ethoxy]ethoxy]ethoxy]ethylamino]-2-(2,6-dioxo-3-piperidyl)isoindoline-1,3-dione]: 10 to 25%; for `Cc1c(O)cc(O)c(C(=O)N2Cc3ccc(C(=O)N4CCC(CN5CCN(c6ccc7c(c6)CN(C6CCC(=O)NC6=O)C7=O)CC5)CC4)cc3C2)c1OCc1ccccc1` (centres unmarked) [Example 22, 3-(5-(4-((1-(2-(2-(Benzyloxy)-4,6-dihydroxy-3-methylbenzoyl)isoindoline-5-carbonyl)piperidin-4-yl)methyl)piperazin-1-yl)-1-oxoisoindolin-2-yl)piperidine-2,6-dione]: 10 to 25%.
Compound `Cc1ncsc1-c1ccc(CNC(=O)[C@@H]2C[C@@H](O)CN2C(=O)[C@@H](NC(=O)CCCCCCCCC(=O)N2CCN(Cc3ccc4c(c3)CN(C(=O)c3c(O)cc(O)c(C)c3OCC3CCCCC3)C4)CC2)C(C)(C)C)cc1` [Example 29, (2S,4R)-1-[(2S)-2-[[10-[4-[[2-[2-(Cyclohexylmethoxy)-4,6-dihydroxy-3-methyl-benzoyl]isoindolin-5-yl]methyl]piperazin-1-yl]-10-oxo-decanoyl]amino]-3,3-dimethyl-butanoyl]-4-hydroxy-N-[[4-(4-methylthiazol-5-yl)phenyl]methyl]pyrrolidine-2-carboxamide] registered a remaining activity at 1 µM of less than 10%.
Compound `Cc1c(O)cc(O)c(C(=O)N2Cc3ccc(CN4CCN(CCOCCOCCOCCNc5cccc6c5CN(C5CCC(=O)NC5=O)C6=O)CC4)cc3C2)c1OCC1CCCCC1` (centres unmarked) [Example 17, 3-(4-((2-(2-(2-(2-(4-((2-(2-(Cyclohexylmethoxy)-4,6-dihydroxy-3-methylbenzoyl)isoindolin-5-yl)methyl)piperazin-1-yl)ethoxy)ethoxy)ethoxy)ethyl)amino)-1-oxoisoindolin-2-yl)piperidine-2,6-dione] gave a remaining activity at 1 µM of 10 to 25%.
The result for `Cc1c(O)cc(O)c(C(=O)N2Cc3ccc(CN4CCN(CCOCCOCCOCCOCCNc5ccc6c(c5)C(=O)N(C5CCC(=O)NC5=O)C6=O)CC4)cc3C2)c1OCc1ccccc1` (centres unmarked) [Example 19, 5-[2-[2-[2-[2-[2-[4-[[2-(2-Benzyloxy-4,6-dihydroxy-3-methyl-benzoyl)isoindolin-5-yl]methyl]piperazin-1-yl]ethoxy]ethoxy]ethoxy]ethoxy]ethylamino]-2-(2,6-dioxo-3-piperidyl)isoindoline-1,3-dione] reads less than 10%.

Source of the values: patent US20240425483A1, “INDOLINES AS PROTAC COMPOUNDS” (NeoPhore Limited, priority 2021, published 2024).
